Laboratory results as given in patent US20260070887A1 (Shenzhen Zhongge Biological Technology Co., Ltd., priority 2022, published 2026).
Where two headings read alike, the source gives them in different places.

Columns and labels:
KIF18A = KIF18A (Homo sapiens (Human), UniProt Q8NI77); assay: KIF18A ATPase activity under tubulin stimulation (ADP-Glo assay); assay type: biochemical; conditions: KIF18A 30 nM, ATP 150 μM, pig microtubules
OVCAR-3 cells = assay: OVCAR-3 cell proliferation (Cell Titer-Glo, 10 days); assay type: cell-based, human
Summary of the method: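 IC50 was fitted by nonlinear regression of percent inhibition versus the 0.1% DMSO control. Luminescence was read with Cell Titer-Glo after 10 days of co-culture of logarithmic-phase cells (400/well) with compound at 0.12 nM–10 μM final, in medium with 20% fetal bovine serum and 0.01 mg/mL insulin.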

PK study in ICR mice = assay type: in vivo, mouse; conditions: both sexes, mouse, plasma, route and dose not given; for AUC: read-out: AUC; for Cmax: read-out: Cmax
Experimental: 6 ICR mice (male/female) were divided into two groups, administered orally and intravenously, respectively, with 3 mice/group. The mice were fasted for 10-14 hours prior to dosing with free access to water.
The test compound was weighed according to the administration dose, and prepared into a dose formulation at appropriate concentrations (for rats and mice, intravenous and oral administration at a volume of 5 mL/kg and 10 mL/kg, respectively), wherein the intravenous injection was a clear solution, and the oral preparation was a clear solution or a homogeneous suspension.
Animals were dosed by intravenous injection and oral gavage, and blood samples were collected at 0.033, 0.083, 0.25, 0.5, 1, 2, 4, 8, and 24 h after intravenous administration and 0.083, 0.25, 0.5, 1, 2, 4, 6, 8, and 24 h after oral administration. Whole blood was centrifuged at 6800 g for 6 min at 4° C. and the top plasma was stored in a −80° C. freezer for later analysis.
The DMSO stock solution of the test compound was diluted into a series of working solutions with a methanol or an acetonitrile solution, and added to a blank plasma matrix, and standard curves were generated and quality control samples were prepared. An appropriate volume of the plasma sample was taken and a suitable multiple of methanol or acetonitrile containing an internal standard was added for protein precipitation based on the response. After centrifugation of all samples at 18000 g for 10 min at 4° C., an appropriate amount of supernatant was taken for LC-MS/MS injection analysis.
Drug concentration-time curves in plasma were plotted according to test concentrations, and pharmacokinetic parameters were calculated using noncompartmental analysis by WinNonlin software, including: half-life (T½), area under the concentration-time curve from time zero to time t (AUCO-t), clearance (CL), volume of distribution at steady state (Vss) and bioavailability (F), with some of the test results shown in Table 4.

HT-29 cells = assay: HT-29 cell proliferation (Cell Titer-Glo, 6 days); assay type: cell-based
Experimental: The inhibitory effect on the KIF18A target by the compounds of the present disclosure was evaluated by testing the inhibitory effect on proliferation of HT-29 cells by the compounds of the present disclosure.
HT-29 (ATCC, HTB-38) cells were cultured in McCoy's 5a complete medium (Gibco, 12330-031) containing 10% fetal bovine serum (Gibco, 10099-141C), 100 U penicillin and […] streptomycin (Gibco, 15140-122). The Promega kit Cell Titer-Glo (Promega: G7572) was used in this method for test. • 1. HT-29 cells were cultured in T75 cell flasks (Corning, 430641) and the medium was placed in a 37° C., 5% CO2 incubator. Cells were passaged when reaching a cell density of 70%-80%, approximately twice per week. • 2. To perform the experiment, the test compounds were dissolved in DMSO to prepare a 10 mM stock solution, and the test compounds were added to the 384-well cell test plate (Corning, 3765) at the predetermined concentration using ECHO. • 3. The cell culture flask was taken out, the medium was removed, and the cells were rinsed with PBS. Then 2 mL of trypsin (with 0.25% EDTA) was added, and the flask was placed in the incubator for digestion for 4 minutes. • 4. Digestion was stopped by adding 4 mL of complete medium and the cell suspension was transferred to a centrifuge tube and centrifuged at 1000 rpm for 4 minutes. • 5. The cells were resuspended in 6 mL of complete medium, followed by cell counting. The cell density was adjusted to 4,170 cells/mL, and the cells were added to a 384-well plate at 60 μL/well. • 6. The 384-well plate was centrifuged at 500 rpm for 1 minute, and then placed in a 37° C., 5% CO2 incubator for 6 days of cultivation. • 7. Six days later, the cell culture plate was equilibrated for 10 minutes at room temperature, 25 μL of Cell Titer-Glo was added to each well, and the mixture was shaken and mixed well and let stand for 5 minutes. The luminescence values for samples in various wells were read using a microplate reader in Luminescence mode.
(§1) The percentage of inhibition of cell proliferation by the test compound at each concentration was calculated by comparing with the values of the control group (0.3% DMSO). The IC50 values of the compounds were obtained by concentration-inhibition rate nonlinear regression analysis of the test compounds using GraphPad Prism 9.

HCT116 cells = assay: HCT116 cell anti-proliferation assay; assay type: cell-based; conditions: Homo sapiens, HCT-116, 144 h, 6 days, Cell Titer-Glo
Experimental: HCT116 (ATCC, CCL-247) cells were cultured in McCoy's 5a complete medium (Gibco, 12330-031) containing 10% fetal bovine serum (Gibco, 10099-141C), 100 U penicillin and 100 μg/mL streptomycin (Gibco, 15140-122). The Promega kit Cell Titer-Glo (Promega: G7572) was used in this method for test.
(§2) HCT116 cells were cultured in T75 cell flasks (Corning, 430641) and the cells were placed in a 37° C., 5% CO2 incubator. Cells were passaged when reaching a cell density of 70%-80%, approximately twice per week. To perform the experiment, the test compounds were dissolved in DMSO to prepare a 10 mM stock solution, and the test compounds were added to the 384-well cell test plate (Corning, 3765) at the predetermined concentration (19.5 nM-[…]) using ECHO. HCT1169 cells were digested and 150 cells (60 μL medium) were seeded per well in the test plate. The 384-well plate was then centrifuged at 500 rpm for 1 minute, and then placed in a 37° C., 5% CO2 incubator for 6 days of cultivation. Six days later, the cell culture plate was equilibrated for 10 minutes at room temperature, 25 μL of Cell Titer-Glo was added to each well, and the mixture was shaken and mixed well and let stand for 5 minutes. The luminescence values for samples in various wells were read using a microplate reader in Luminescence mode.
as §1, with “(0.2%” for “(0.3%”

A2780 cells = assay: A2780 cell anti-proliferation assay; assay type: cell-based; conditions: Homo sapiens, A2780, 144 h, 6 days, Cell Titer-Glo
Experimental: A2780 (ECACC) cells were cultured in RPMI-1640 complete medium (Gibco, A1049101) containing 10% fetal bovine serum (Gibco, 10099-141C), 100 U penicillin and 100 μg/mL streptomycin (Gibco, 15140-122). The Promega kit Cell Titer-Glo (Promega: G7572) was used in this method for test.
as §2, with “A2780” for “HCT116”, “once every five days.” for “approximately twice per week.”, “A2780” for “HCT1169”, “4000” for “150”
as §1, with “inhibition of A2780 cell proliferation” for “inhibition of cell proliferation”, “control group (0.2% DMSO). The” for “control group (0.3% DMSO). The”

Chain of KIF18A (Q8NI77 whole entry): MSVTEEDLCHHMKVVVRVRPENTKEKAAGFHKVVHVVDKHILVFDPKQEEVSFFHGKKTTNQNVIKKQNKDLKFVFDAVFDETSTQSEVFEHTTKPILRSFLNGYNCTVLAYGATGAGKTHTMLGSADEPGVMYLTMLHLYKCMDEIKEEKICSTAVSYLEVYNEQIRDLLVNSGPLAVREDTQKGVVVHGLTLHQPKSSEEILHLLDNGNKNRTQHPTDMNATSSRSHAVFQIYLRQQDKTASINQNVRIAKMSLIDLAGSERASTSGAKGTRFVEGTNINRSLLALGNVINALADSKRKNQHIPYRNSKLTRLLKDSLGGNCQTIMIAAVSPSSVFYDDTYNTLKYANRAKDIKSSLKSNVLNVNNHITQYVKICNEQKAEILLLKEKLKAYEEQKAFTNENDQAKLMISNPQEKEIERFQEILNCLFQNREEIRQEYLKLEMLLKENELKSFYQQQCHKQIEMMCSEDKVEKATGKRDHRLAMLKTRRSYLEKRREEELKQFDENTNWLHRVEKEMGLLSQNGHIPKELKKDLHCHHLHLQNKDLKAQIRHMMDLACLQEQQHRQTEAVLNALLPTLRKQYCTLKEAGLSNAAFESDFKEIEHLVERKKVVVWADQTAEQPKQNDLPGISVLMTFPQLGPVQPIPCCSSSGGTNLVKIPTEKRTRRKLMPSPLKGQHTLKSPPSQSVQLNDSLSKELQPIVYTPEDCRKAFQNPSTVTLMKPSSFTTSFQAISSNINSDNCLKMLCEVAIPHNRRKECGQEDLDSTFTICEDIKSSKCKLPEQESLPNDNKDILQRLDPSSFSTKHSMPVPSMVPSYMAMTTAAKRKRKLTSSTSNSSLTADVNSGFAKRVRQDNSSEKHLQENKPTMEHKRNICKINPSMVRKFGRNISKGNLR
Chain of KIF18A (P02550 whole entry partner): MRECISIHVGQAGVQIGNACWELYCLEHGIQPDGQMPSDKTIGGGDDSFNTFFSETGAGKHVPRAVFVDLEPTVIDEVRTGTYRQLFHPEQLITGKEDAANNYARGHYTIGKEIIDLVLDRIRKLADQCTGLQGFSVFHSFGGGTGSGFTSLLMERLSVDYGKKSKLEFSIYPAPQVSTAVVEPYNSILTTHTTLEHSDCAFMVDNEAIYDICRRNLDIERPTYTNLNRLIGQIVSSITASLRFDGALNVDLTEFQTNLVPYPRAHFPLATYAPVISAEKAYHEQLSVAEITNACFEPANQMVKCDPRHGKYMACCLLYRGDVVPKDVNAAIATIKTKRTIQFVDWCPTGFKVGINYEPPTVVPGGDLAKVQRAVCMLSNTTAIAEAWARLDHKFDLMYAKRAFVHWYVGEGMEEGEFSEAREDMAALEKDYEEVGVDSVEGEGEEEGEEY
Chain of KIF18A (P02554 whole entry partner): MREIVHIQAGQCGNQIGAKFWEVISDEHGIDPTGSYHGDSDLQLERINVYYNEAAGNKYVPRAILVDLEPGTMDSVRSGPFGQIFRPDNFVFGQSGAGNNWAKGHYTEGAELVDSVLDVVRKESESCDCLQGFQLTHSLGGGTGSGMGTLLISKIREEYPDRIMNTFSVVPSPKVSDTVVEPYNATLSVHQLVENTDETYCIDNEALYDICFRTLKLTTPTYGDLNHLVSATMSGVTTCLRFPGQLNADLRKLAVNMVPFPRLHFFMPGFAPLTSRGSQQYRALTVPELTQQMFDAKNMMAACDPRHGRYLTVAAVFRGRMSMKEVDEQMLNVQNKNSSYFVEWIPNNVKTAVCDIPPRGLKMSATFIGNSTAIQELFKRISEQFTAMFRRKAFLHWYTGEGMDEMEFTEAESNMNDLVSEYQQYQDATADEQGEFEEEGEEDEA

Row | IC50 (KIF18A) [nM] | IC50 (OVCAR-3 cells; Homo sapiens, OVCAR-3, 240 h) [nM] | IC50 (HT-29 cells; Homo sapiens, HT-29, 144 h) [nM] | IC50 (OVCAR-3 cells) [nM] | IC50 (HCT116 cells) [nM] | IC50 (A2780 cells) [nM] | IC50 (HT-29 cells) [nM] | Structure (SMILES) | AUC (PK study in ICR mice) [ng·h/mL] | Cmax (PK study in ICR mice) [ng/mL]
1 | 50 to 500 |  | ≤ 200 | ≤ 50 |  |  |  | [2H]C([2H])([2H])OC1c2cc3c(NC(=O)c4ccc(NS(=O)(=O)CCO)cc4N4CCC5(CC4)CC5)cccc3n2CCC1(F)F (stereo not shown) [Compound 385, N-(8,8-difluoro-9-(methoxy-d3)-6,7,8,9-tetrahydropyridino[1,2-a]indol-1-yl)-4-((2-hydroxyethyl)sulfonamido)-2-(6-azaspiro[2.5]oct-6-yl)benzamide] |  | 
2 | 50 to 500 |  | 200 to 1000 | 50 to 500 |  |  |  | [2H]C([2H])([2H])OC1c2cc3c(NC(=O)c4ccc(NS(=O)(=O)CCO)cc4N4CCC(=C(F)F)CC4)cccc3n2CCC1(F)F (stereo not shown) [Compound 386, N-(8,8-difluoro-9-(methoxy-d3)-6,7,8,9-tetrahydropyridino[1,2-a]indol-1-yl)-2-(4-(difluoromethylene)piperidin-1-yl)-4-((2-hydroxyethyl)sulfonamido)benzamide] |  | 
3 | 50 to 500 | ≤ 50 | ≤ 200 |  |  |  |  | CC1(C)OCCn2c1cc1c(NC(=O)c3ccc(NS(=O)(=O)CCO)cc3N3CCC4(CC3)CC4)cccc12 [Compound 396, N-(1,1-dimethyl-3,4-dihydro-1H-[1,4]oxazino[4,3-a]indol-9-yl)-4-((2-hydroxyethyl)sulfonamido)-2-(6-azaspiro[2.5]octan-6-yl)benzamide] |  | 
4 |  | ≤ 50 | ≤ 200 |  | > 10000 | > 10000 |  | COc1ccc(NC(=O)c2ccc(NS(=O)(=O)CCO)cc2N2CCC3(CC2)CC3)c2cc3n(c12)CCOC3 [Compound 404, 4-((2-hydroxyethyl)sulfonamido)-N-(6-methoxy-3,4-dihydro-1H-[1,4]oxazinyl[4,3-a]indol-9-yl)-2-(6-azaspiro[2.5]oct-6-yl)benzamide] |  | 
5 | ≤ 50 |  |  | ≤ 50 |  |  | 200 to 1000 | O=C(Nc1ccnc2c1cc1n2CCC(F)(F)C1)c1ccc(NS(=O)(=O)CCO)cc1N1CCC(=C(F)F)CC1 [Example 376] |  | 
6 | ≤ 50 |  |  | ≤ 50 |  |  | ≤ 200 | O=C(Nc1ccnc2c1cc1n2CCC(F)(F)C1)c1ccc(NS(=O)(=O)CCO)cc1N1CCC2(CC1)CC2 [Example 380, N-(7,7-difluoro-6,7,8,9-tetrahydropyridin[3,2-b]indolizin-4-yl)-4-((2-hydroxyethyl)sulfonamido)-2-(6-azaspiro[2.5]oct-6-yl)benzamide] |  | 
7 | ≤ 50 | 50 to 500 | 200 to 1000 |  |  |  |  | O=C(Nc1cccc2c1cc1n2CC2(CC2)OC1)c1ccc(NS(=O)(=O)CCO)cc1N1CCC(=C(F)F)CC1 [Example 485, 2-(4-(difluoromethylene)piperidin-1-yl)-4-((2-hydroxyethyl)sulfonamido)-N-(1′H,4′H-spiro[cyclopropane-1,3′-[1,4]oxazino[4,3-a]indole]-9′-yl)benzamide] | 33300 | 3740

Row | Structure (SMILES) | IC50 (KIF18A) [nM] | IC50 (OVCAR-3 cells; Homo sapiens, OVCAR-3, 240 h) [nM] | IC50 (HT-29 cells; Homo sapiens, HT-29, 144 h) [nM] | IC50 (OVCAR-3 cells) [nM] | IC50 (HCT116 cells) [nM] | IC50 (A2780 cells) [nM] | IC50 (HT-29 cells) [nM] | AUC (PK study in ICR mice) [ng·h/mL] | Cmax (PK study in ICR mice) [ng/mL]
8 | O=C(Nc1cccc2c1cc1n2CCC(F)(F)C1O)c1ccc(NS(=O)(=O)CCO)cc1N1CCC2(CC1)CC2 (single isomer, unassigned) [Compound 384-P1, N-(8,8-difluoro-9-hydroxy-6,7,8,9-tetrahydropyridino[1,2-a]indol-1-yl)-4-((2-hydroxyethyl)sulfonamido)-2-(6-azaspiro[2.5]oct-6-yl)benzamide] | ≤ 50 | ≤ 50 | ≤ 200 |  |  |  |  | 1290 | 366
9 | CC1=CCCn2c1cc1c(NC(=O)c3ccc(NS(=O)(=O)CCO)cc3N3CCC4(CC3)CC4)cccc12 [Compound 410, 4-(2-hydroxyethyl)sulfonamido-N-(9-methyl-6,7-dihydropyridino[1,2-a]indol-1-yl)-2-(6-azaspiro[2.5]octan-6-yl)benzamide] | 50 to 500 | ≤ 50 | ≤ 200 |  |  |  |  | 16400 | 2790
